Test results from a melting point compilation (Tetko et al.; mined from patent text by program, amines drawn as free bases though some values may be those of a salt).

SMILES	melting point
COC(=O)c1cccc(COc2ccc(S(=O)(=O)c3ccc(C)nc3Nc3c(C)cc(C)cc3C)cc2)c1	148 to 150 °C
COC(=O)CCCOc1ccc(CNC(=O)C2Cc3ccccc3N2S(=O)(=O)c2ccc(-c3cccc(C(F)(F)F)c3)cc2)cc1 (centres undefined)	50 °C
CN1C(=O)CC[C@]2(C)c3ccc(-c4ccc5c(c4)OCO5)cc3CC[C@@H]12	146 to 152 °C
O=C(c1c(Cl)cccc1Cl)n1ccnc1-c1ccccc1	110 to 114 °C
CCC1(C)Cc2c(C)c(N3CCN(c4ccc(OC)cc4)CC3)c(C)c(C)c2O1 (centres undefined)	106 to 110 °C
COc1ccc(CSc2nc3cnccc3[nH]2)cc1	160 to 161 °C
COC(=O)NCCOC(=O)COc1cc(Oc2ccc(C(F)(F)F)cc2Cl)ccc1[N+](=O)[O-]	105 to 108 °C
C[C@@H]1OC(=O)N[C@H]1Cc1ccccc1	116 °C
CC(C)(C)c1ccc(/C=N/OCCCOc2ccc(C(=O)O)c(NC(=O)c3ccc4ccccc4c3)c2)cc1	156 to 158 °C
Cc1sc2c(c1C)C(c1ccc(Cl)cc1)=N[C@@H](CC(=O)Nc1ccc(N)cc1)c1nnc(C)n1-2	169 to 173 °C
COc1ccc(Nc2ccc(O)cc2)c(CO)c1	96.5 to 97 °C
O=C(O)c1cc2cc(Cl)ccc2nn1	207 to 208 °C
CCNc1nc(-c2ccccc2)ncc1[N+](=O)[O-]	136 to 137 °C
CCCCCCOc1ccc(F)c(C(N)=O)c1Cl	66 to 68 °C
COc1cc2c(cc1OC)CC(N)CC2 (centres undefined)	83 to 86 °C
Cc1c(C(=O)Nc2ccc(N3CCCC3)c(C#N)c2)cnn1-c1ccc(F)cc1	185 °C
Cc1cnc(N2N=C(c3ccc([N+](=O)[O-])cc3)c3cc4c(cc3CC2C)OCO4)s1 (centres undefined)	193 to 195 °C
CCN1CCc2cc(OC)c(OC)cc2C12CCC(C=O)CC2C1c2cc(OC)c(OC)cc2CCN1C (centres undefined)	137 to 139 °C
O=c1c2ccccc2[nH]n2cccc12	> 300 °C
Nc1nc(N)nc(-c2cccc(S(N)(=O)=O)c2)n1	> 290 °C
Oc1cccc(-c2cnc3cnc(-c4cccc(O)c4)nc3c2)c1	264 to 265 °C
O=C(O)c1cnc(O)cc1Cl	299 to 300 °C

Now from value to compound:

melting point	SMILES
130 to 133 °C	Cc1ccc(OC(C(=O)OC2CC(O)C=C3C=CC(C)C(CCC4CC(O)CC(=O)O4)C32)c2ccccc2)cc1 (mixture of isomers)
140 to 142 °C	COc1ccc(-c2[nH]cnc2-c2cc(OC)c(N)c(OC)c2)cc1N
135 to 136 °C	Cc1c(Cc2cccc(C(F)(F)F)c2)sc2c(-c3cccc(C(=O)NCCC#N)c3)cccc12
60 to 61 °C	Cc1ccc(N)cc1/C=C/c1nc(C(C)C)cs1
96 to 99 °C	CC(C)(C)C(NC(=O)OCc1ccccc1)C(=O)O (centres undefined)
115 to 117 °C	COc1ccccc1O[C@@H]1CN(Cc2ccccc2)C[C@H]1O (relative stereo)
172 to 173 °C	CC(=O)Nc1cc2c(cc1C#N)C(Nc1ccc(C(=O)OC(C)(C)C)c(F)c1)CC2 (centres undefined)
123 to 125 °C	O=C(O)c1cccc(OCCCCCCc2cccc(O)c2O)c1
100 to 104 °C	CN1CC(CC#N)CC2c3cccc4c3C(CN4)CC21 (centres undefined)
101 to 102 °C	CN(C(=O)OC(C)(C)C)c1cc(Oc2cccnc2)ccc1N
216 to 217 °C	CC(=O)NC1Cc2ccc(NC(=O)c3ccccc3Br)cc2C1 (centres undefined)
148 to 150 °C	CN(Cc1ccc2c(Br)c(OCC#N)ccc2c1)C(=O)c1cn(C)c2ccccc12
83 to 85 °C	CNC(C)=CC(=O)CS(=O)(=O)NC(C)C
137 to 138 °C	CCCCOC(=O)NS(=O)(=O)/C=C/c1cc(OCCCC)nn1Cc1ccc(Cl)cc1Cl
180 °C	CC(=O)Oc1cccc2c1C(=O)c1c(OC(C)=O)cccc1C2C(=O)C1CCCC1
60 to 62 °C	CCCCCCC(C)N(C(C)=O)c1ccc(I)cc1 (centres undefined)
80 to 81 °C	CC(=O)c1ccc2ccccc2c1OC(F)F
